{
  "source": "patent US10793589B2",
  "about": "“Resorcinarene-based amphipathic compound and use thereof” (Industry-University Cooperation Foundation Hanyang …, priority 2016, dated 2020)",
  "key": {"[1]": {"test": "Critical micelle concentration by fluorescence dye diphenylhexatriene (DPH)", "type": "physicochemical", "details": "DPH fluorescence", "description": "A method of measuring the CMC is not particularly limited and may be any method generally known in the art. For example, the CMC may be measured according to a fluorescence staining method using diphenylhexatriene (DPH).\n(§1) Specifically, critical micelle concentrations (CMCs) were measured using a fluorescence dye, diphenylhexatriene (DPH), and hydrodynamic radii (Rh) of micelles formed of each compound (1.0 wt %) were measured by a dynamic light scattering (DLS) experiment. Measured results are shown in Table 1 in comparison with values of DDM as an existing amphipathic molecule (detergent)."}, "[2]": {"test": "Hydrodynamic radius and size distribution of micelles by dynamic light scattering (DLS)", "type": "physicochemical", "details": "compound 1.0 wt %", "description": "A method of measuring the radius of a micelle is not particularly limited and may be any method generally known in the art. For example, the radius may be measured by a dynamic light scattering (DLS) experiment.\nas §1\nMeanwhile, size distributions of the micelles formed by RGAs and RMAs were measured using DLS."}, "[3]": {"system": "leucine transporter (LeuT)", "test": "LeuT structural stability, [3H]-Leu binding by scintillation proximity assay (SPA)", "type": "biochemical, Aquifex aeolicus", "description": "(§2) FIGS. 7A and 7B are a set of graphs illustrating a result of measuring the structural stability of a leucine transporter (LeuT) solubilized in RGAs or DDM evaluated at CMC+0.04 wt % (a) or CMC+0.2 wt % (b). Protein stability was determined by measuring the ability of the transporter to bind a radiolabeled ligand ([3H]-Leu) via scintillation proximity assay (SPA). The substrate binding ability of LeuT was measured at regular intervals during 10 days of incubation of the protein at room temperature in the presence of individual amphipathic compounds.\nas §2, with “8A” for “7A”, “8B” for “7B”, “RMAs” for “RGAs”\nAn experiment was carried out to measure the structural stability of a leucine transporter (LeuT) caused by RGAs and RMAs. The concentrations of individual amphipathic compounds were (a) CMC+0.04 wt % or (b) CMC+0.2 wt %, and the substrate binding characteristic of LeuT was measured by scintillation proximity assay (SPA) using [^3H]-Leu. […]\nSpecifically, wild type LeuT derived from Aquifex aeolicus which is a thermophilic bacterium was purified according to the method described in the paper (Nature 1998, 392, 353-358) written by G. Deckert et al. LeuT was expressed in E. coli C41 (DE3) transformed with pET16b encoding a C-terminal 8×His-tagged transporter (an expression plasmid was provided by Dr. E. Gouaux (Vollum Institute, Portland, Oreg., USA)). […] The protein samples were stored at room temperature for 10 days and centrifuged at designated time points, and protein characteristics were determined by measuring the binding capacity of [^3H]-Leucine using SPA. […]"}, "[4]": {"target": "T1, human β2 adrenergic receptor (β2AR) (Homo sapiens, UniProt P07550)", "T1 construct": "made in house", "T1 sequence (P07550 whole entry)": "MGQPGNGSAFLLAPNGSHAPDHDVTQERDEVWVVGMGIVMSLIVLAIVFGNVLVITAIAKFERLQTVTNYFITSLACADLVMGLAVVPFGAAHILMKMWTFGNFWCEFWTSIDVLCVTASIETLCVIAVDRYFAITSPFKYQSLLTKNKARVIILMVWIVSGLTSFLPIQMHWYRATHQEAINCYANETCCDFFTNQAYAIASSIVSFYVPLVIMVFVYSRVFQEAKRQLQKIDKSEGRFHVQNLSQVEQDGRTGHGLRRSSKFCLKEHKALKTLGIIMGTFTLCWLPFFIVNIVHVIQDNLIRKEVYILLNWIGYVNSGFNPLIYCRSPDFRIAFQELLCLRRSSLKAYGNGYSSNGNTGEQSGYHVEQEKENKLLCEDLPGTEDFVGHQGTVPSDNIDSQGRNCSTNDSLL", "test": "β2AR stability, [3H]-dihydroalprenolol (DHA) ligand binding assay", "type": "biochemical", "details": "for maintaining the ligand binding characteristic of the receptor compared to DDM: 0 hour, CMC+0.2 wt %, [3H]-DHA", "description": "(§3) FIGS. 10A and 10B illustrate a result of measuring the effect of RGAs on the stability of β2AR after (a) 0 hour and (b) over time. Protein-ligand binding characteristics were measured via ligand binding assay using [^3H]-dihydroalprenolol (DHA), and the measurement was carried out by sampling a protein sample at regular intervals during 2 days of storage at room temperature.\nas §3, with “12A” for “10A”, “12B” for “10B”, “RMAs” for “RGAs”\nAn experiment was carried out to measure the structural stability of a human (32 adrenergic receptor (β2AR) and a G protein-coupled receptor (GPCR) caused by RGAs and RMAs. That is, a receptor purified with DDM was diluted with a buffer solution containing only each RGA and RMA without cholesteryl hemisuccinate (CHS) or a buffer solution containing CHS and DDM. The final concentration of the compound was CMC+0.2 wt %, and the ligand binding characteristic of the receptor was measured using [^3H]-dihydroalprenolol ([^3H]-DHA) binding.\nSpecifically, radioligand binding assay was carried out using the following method. β2AR was purified using 0.1% DDM according to the method described in a paper (Science, 2007, 318, 1266-1273.) written by D. M. Rosenbaum et al. and finally concentrated to about 10 mg/ml (about 200 μM). The β2AR purified with DDM was used to prepare a master binding mixture containing 10 nM [^3H]-dihydroalprenolol (DHA) supplemented with 0.5 mg/ml BSA in a 0.2% amphipathic compound (DDM, RGAs or RMAs). The receptor purified with DDM, RGAs or RMAs was incubated with 10 nM [^3H]-DHA at room temperature for 30 minutes. The mixture was loaded into a G-50 column, the flow-through was collected with 1 ml of a binding buffer (20 mM HEPES pH 7.5, 100 mM NaCl, supplemented with 0.5 mg/ml BSA and 20×CMC individual amphipathic compound, and the G-50 column was further filled with 15 ml of a scintillation fluid. Receptor-bound [^3H]-DHA was measured with a scintillation counter (Beckman). The binding capacity of [^3H]-DHA was measured and shown in a column graph. Each experiment was performed in triplicate."}},
  "data": [
    {"smiles": "CCCCCCCCC[C@H]1c2cc(c(OCCO[C@@H]3OC(CO)[C@@H](O)[C@H](O)C3O)cc2OCCO[C@@H]2OC(CO)[C@@H](O)[C@H](O)C2O)[C@H](CCCCCCCCC)c2cc(c(OCCO[C@@H]3OC(CO)[C@@H](O)[C@H](O)C3O)cc2OCCO[C@@H]2OC(CO)[C@@H](O)[C@H](O)C2O)[C@@H](CCCCCCCCC)c2cc(c(OCCO[C@@H]3OC(CO)[C@@H](O)[C@H](O)C3O)cc2OCCO[C@@H]2OC(CO)[C@@H](O)[C@H](O)C2O)[C@@H](CCCCCCCCC)c2cc1c(OCCO[C@@H]1OC(CO)[C@@H](O)[C@H](O)C1O)cc2OCCO[C@@H]1OC(CO)[C@@H](O)[C@H](O)C1O", "note": "(some centres unmarked) [RGA-C10]", "values": [
      {"measurement": "CMC", "setting": "[1]", "value": "~5", "unit": "µM"},
      {"measurement": "CMC (wt %)", "setting": "[1]", "value": "~0.013", "unit": "wt %"},
      {"measurement": "Rh (nm), hydrodynamic radius of micelles", "setting": "[2]", "value": "3.5 ± 0.2", "unit": "nm"}
    ]},
    {"smiles": "CCCCCCC[C@H]1c2cc(c(OCCO[C@@H]3OC(CO)[C@@H](O)[C@H](O)C3O)cc2OCCO[C@@H]2OC(CO)[C@@H](O)[C@H](O)C2O)[C@H](CCCCCCC)c2cc(c(OCCO[C@@H]3OC(CO)[C@@H](O)[C@H](O)C3O)cc2OCCO[C@@H]2OC(CO)[C@@H](O)[C@H](O)C2O)[C@@H](CCCCCCC)c2cc(c(OCCO[C@@H]3OC(CO)[C@@H](O)[C@H](O)C3O)cc2OCCO[C@@H]2OC(CO)[C@@H](O)[C@H](O)C2O)[C@@H](CCCCCCC)c2cc1c(OCCO[C@@H]1OC(CO)[C@@H](O)[C@H](O)C1O)cc2OCCO[C@@H]1OC(CO)[C@@H](O)[C@H](O)C1O", "note": "(some centres unmarked) [RGA-C8]", "values": [
      {"measurement": "CMC", "setting": "[1]", "value": "~10", "unit": "µM"},
      {"measurement": "CMC (wt %)", "setting": "[1]", "value": "~0.025", "unit": "wt %"},
      {"measurement": "Rh (nm), hydrodynamic radius of micelles", "setting": "[2]", "value": "2.8 ± 0.1", "unit": "nm"},
      {"measurement": "LeuT stabilization as concentration of compound increased", "setting": "[3]; CMC+0.04 wt % versus CMC+0.2 wt %", "value": "enhanced effect as concentration increased"},
      {"measurement": "effect of maintaining the substrate binding characteristic of LeuT", "setting": "[3]; CMC+0.2 wt %, 10 days at room temperature", "value": "highest effect of maintaining the substrate binding characteristic of LeuT"},
      {"measurement": "maintaining the ligand binding characteristic of the receptor compared to DDM", "setting": "[4]", "value": "inferior to DDM"}
    ]},
    {"smiles": "CCCCCCCCCCC[C@H]1c2cc(c(OCCO[C@@H]3OC(CO)[C@@H](O)[C@H](O)C3O)cc2OCCO[C@@H]2OC(CO)[C@@H](O)[C@H](O)C2O)[C@H](CCCCCCCCCCC)c2cc(c(OCCO[C@@H]3OC(CO)[C@@H](O)[C@H](O)C3O)cc2OCCO[C@@H]2OC(CO)[C@@H](O)[C@H](O)C2O)[C@@H](CCCCCCCCCCC)c2cc(c(OCCO[C@@H]3OC(CO)[C@@H](O)[C@H](O)C3O)cc2OCCO[C@@H]2OC(CO)[C@@H](O)[C@H](O)C2O)[C@@H](CCCCCCCCCCC)c2cc1c(OCCO[C@@H]1OC(CO)[C@@H](O)[C@H](O)C1O)cc2OCCO[C@@H]1OC(CO)[C@@H](O)[C@H](O)C1O", "note": "(some centres unmarked) [RGA-C12]", "values": [
      {"measurement": "CMC", "setting": "[1]", "value": "~2.5", "unit": "µM"},
      {"measurement": "CMC (wt %)", "setting": "[1]", "value": "~0.0069", "unit": "wt %"},
      {"measurement": "Rh (nm), hydrodynamic radius of micelles", "setting": "[2]", "value": "3.0 ± 0.2", "unit": "nm"},
      {"measurement": "maintaining the ligand binding characteristic of the receptor compared to DDM", "setting": "[4]", "value": "superior to DDM"},
      {"measurement": "ability to maintain the ligand binding of the receptor over time compared to DDM", "setting": "[4]; 2 days at room temperature, early stage (0 to 12 h)", "value": "inferior ability to maintain the ligand binding of the receptor compared to DDM"}
    ]}
  ]
}
